Among the data in patent US8586598B2, “CDK inhibitor salts” (Nerviano Medical Sciences S.R.L., priority 2009, dated 2013) are solubility values, retold here.

Series [1] can be described thus: Solubility of compound 125 salts and free base (96-well plate, shaken at RT 30 minutes, filtered, HPLC). Format: physicochemical. Particulars: thermodynamic from solid.
Series [2] is described as follows: Solubility (no method given). Format: physicochemical.

In brackets after ≈: the same amount, converted by molar mass. Where two headings read alike, the source gives them in different places.

By solubility is commonly meant the dissolved amount per volume that the medium holds. In the case of `CNC(=O)c1nn(C)c2c1C(C)(C)Cc1cnc(Nc3ccc(N4CCN(C)CC4)cc3)nc1-2` [compound 125, 8-[4-(4-methyl-piperazin-1-yl)-phenylamino]-1,4,4-trimethyl-4,5-dihydro-1H-pyrazolo[4,3-h]quinazoline-3-carboxylic acid methylamide], the solubility at 30 min in series [1] (10% polysorbate 80 in 5% glucose solution, aqueous with cosolvent or surfactant or cyclodextrin) was 0.8 mg/mL; in series [1] (50% polyethylene glycol 400 in 5% glucose solution, aqueous with cosolvent or surfactant or cyclodextrin, read-out: solubility in 50% polyethylene glycol 400 in 5% glucose solution) it was 7.2 mg/mL; in series [1] (saline or isotonic, 5% glucose solution, RT, 30 minutes, read-out: solubility in 5% glucose solution), below 0.1 mg/mL; in series [1] (formulated as hydrochloride in situ salt, read-out: solubility when formulated as hydrochloride in situ salt), 10 mg/mL. The solubility in series [2] (5% dextrose solution, saline or isotonic, read-out: solubility in 5% dextrose solution) is below 0.1 mg/mL; in series [2] (HCl in situ salt formulation, formulated as HCl in situ salt, read-out: solubility when formulated as HCl in situ salt), at least 10 mg/mL; in series [2] (aqueous 10% Polysorbate 80, aqueous with cosolvent or surfactant or cyclodextrin) it was around 0.8 mg/mL (≈ 1740 µM); in series [2] (aqueous 50% Polyethylene Glycol 400, aqueous with cosolvent or surfactant or cyclodextrin, read-out: solubility in aqueous 50% Polyethylene Glycol 400), around 8 mg/mL (≈ 17400 µM); in series [2] (water, read-out: aqueous solubility) it was below 0.1 mg/mL.
